Some results are limits rather than exact numbers.

The subject of the series is apple leaf cuticles. The experiment in a line: Penetration of active compounds through enzymatically isolated apple leaf cuticles. The class given is in vitro ADME, apple trees of the Golden Delicious variety. The text has this: Penetration* of spirotetramate with penetrants according to the invention compared to the control without penetrant and the rapid-action uptake enhancer Genapol® X150. All penetrants employed at 0.5 g/l.
This test measured the penetration of active compounds through enzymatically isolated cuticles of apple leaves.
The leaves used were cut in the fully developed state from apple trees of the Golden Delicious variety. The cuticles were isolated as follows: • first of all, leaf discs labelled on the underside with dye and formed by punching were filled by means of vacuum infiltration with a pectinase solution (0.2% to 2% strength) buffered to a pH of between 3 and 4, • then sodium azide was added and • the leaf discs thus treated were left to stand until the original leaf structure broke down and the non-cellular cuticles underwent detachment.
Thereafter only those cuticles from the top leaf sides that were free from stomata and hairs were used further. They were washed a number of times in alternation with water and with a buffer solution, pH 7. The clean cuticles obtained were, finally, applied to Teflon plaques and smoothed and dried with a gentle jet of air.
In the next step the cuticular membranes obtained in this way were placed in stainless steel diffusion cells (transport chambers) for the purpose of membrane transport investigations. For these investigations the cuticles were placed centrally using tweezers on the edges of the diffusion cells, which were coated with silicone grease, and sealed with a ring, which was likewise greased. The arrangement was chosen so that the morphological outer side of the cuticles was directed outwards, in other words to the air, while the original inner side was facing the interior of the diffusion cell.
The diffusion cells were filled with a 1% phospholipid suspension. Penetration was determined by applying in each case 10 μl of the spray liquor of the composition below, containing radiolabeled active compound in the stated concentrations, to the outer face of the cuticles. The spray liquor is prepared using local tap water of average hardness.
After the spray liquors had been applied, the water was evaporated and then the chambers were inverted and placed in thermostatted troughs, in which the temperature and air humidity over the cuticles was adjustable by means of a gentle air stream onto the cuticles with the spray coating (20° C., 60% rh). At regular intervals, an autosampler took aliquots which were subjected to measurement in a scintillation counter.
Facilitation of the penetration of various active compounds* by penetrants according to the invention exemplified by Crovol® CR70G in comparison to the control.

Where [1] appears, read: with 0.5 g/l Crovol CR70G, after 24 hours.
Setting [2] is: with 0.5 g/l Crovol CR70G, after 72 hours.
The mark [3] stands for this setting: without Crovol CR70G, after 24 hours.
The mark [4] stands for this setting: without Crovol CR70G, after 72 hours.
[5] abbreviates: spirotetramate 0.2 g/l, control without additive.

Turning to `O=[N+]([O-])NC1=NCCN1Cc1ccc(Cl)nc1` [Imidacloprid, imidacloprid], the “% penetration (after hours)” value stood at 0.7% (apple (Malus domestica), 24 h) and 2.2% (apple (Malus domestica), 48 h).
For `CC(C)(C)C(O)(CCc1ccc(Cl)cc1)Cn1cncn1` (centres unmarked) [Tebuconazole, tebuconazole], the “% penetration (after hours)” value under setting [1] came to 6.0%, the “% penetration (after hours)” value under setting [2] was 31.5%, the “% penetration (after hours)” value under setting [3] is reported as below 2% and the “% penetration (after hours)” value under setting [4] was below 2%.
`CS(=O)(=O)c1ccc(C(=O)C2C(=O)CCCC2=O)c(Cl)c1COCC(F)(F)F` [Tembotrione, tembotrione]: the “% penetration (after hours)” value was below 1% (apple (Malus domestica), 6 h) and below 1% (apple (Malus domestica), 18 h).
For the compound `CCOC(=O)OC1=C(c2cc(C)ccc2C)C(=O)N[C@]12CC[C@@H](OC)CC2` [spirotetramate], the “% penetration after 24 h” value under setting [5] was determined as 0.1%. The “% penetration after 3 days” value under setting [5] was determined as 0.3%. For the same compound, the “% penetration (after hours)” value runs as follows: under setting [1], 5.8%; under setting [2], 40.5%; under setting [3], 0.1%; under setting [4], 0.3%.

Values taken from patent US8110592B2, “Agrochemical formulations that can be dispersed in water containing polyalkoxytriglycerides as penetration enhances” (priority 2006, dated 2012).
